Values joined by “and” are separate entries in the source; they are usually repeats but may differ in a detail not shown here. Identical values can stand only once.
Legend:
Type in all cases: in vivo
[1] = test system: larvae of the mustard beetle (Phaedon cochleariae); assay: Phaedon larvae test (cabbage leaf dip); details: 1000 ppm
Method: (§1) To produce a suitable preparation of active compound, 1 part by weight of active compound is mixed with the stated amounts of solvent and emulsifier, and the concentrate is diluted with emulsifier-containing water to the desired concentration. Cabbage leaves (Brassica oleracea) are treated by being dipped into the preparation of active compound of the desired concentration and are populated with larvae of the mustard beetle (Phaedon cochleariae) while the leaves are still moist. After the desired period of time, the kill in % is determined. 100% means that all beetle larvae have been killed; 0% means that none of the beetle larvae have been killed.

[2] = test system: greenhouse red spider mite (Tetranychus urticae); assay: Tetranychus test (OP-resistant/dip treatment); details: 100 ppm; bean plants dipped
Method: To produce a suitable preparation of active compound, 1 part by weight of active compound is mixed with the stated amounts of solvent and emulsifier, and the concentrate is diluted with emulsifier-containing water to the desired concentration. Bean plants (Phaseolus vulgaris) which are heavily infested by all stages of the greenhouse red spider mite (Tetranychus urticae) are dipped into a preparation of active compound of the desired concentration. After the desired period of time, the effect in % is determined. 100% means that all spider mites have been killed; 0% means that none of the spider mites have been killed.

[3] = test system: peach aphid (Myzus persicae); assay: Myzus test (cabbage leaf dip)
Method: as §1, with “oleracea) which are heavily infested by the peach aphid (Myzus persicae)” for “oleracea)”, “concentration.” for “concentration and are populated with larvae of the mustard beetle (Phaedon cochleariae) while the leaves are still moist.”, “aphids” for “beetle larvae”

[4] = test system: caterpillars of the army worm (Spodoptera frugiperda); assay: Spodoptera frugiperda test (cabbage leaf dip)
Method: as §1, with “caterpillars” for “larvae”, “army worm (Spodoptera frugiperda)” for “mustard beetle (Phaedon cochleariae)”, “caterpillars” for “beetle larvae”

[5] = test system: Alopecurus; assay: Pre-emergence test; details: after three weeks
Method: (§2) To produce a suitable preparation of active compound, 1 part by weight of active compound is mixed with the stated amount of solvent, the stated amount of emulsifier is added and the concentrate is diluted with water to the desired concentration. Seeds of the test plants are sown in normal soil. After about 24 hours, the soil is sprayed with the preparation of active compound such that the particular amounts of active compound desired are applied per unit area. The concentration of the spray liquor is chosen such that the particular amounts of active compound desired are applied in 1000 l of water/ha. After three weeks, the degree of damage to the plants is rated in % damage in comparison to the development of the untreated control. The figures denote: • 0%=no effect (like untreated control) • 100%=total destruction

[6] = test system: Setaria; assay: Pre-emergence test; details: after three weeks
Method: as §2

[7] = test system: Amaranthus; assay: Pre-emergence test; details: after three weeks
Method: as §2

[8] = test system: Sugar beet; assay: Post-emergence test; details: 250 g of ai/ha, after three weeks
Method: as §2, with “Test plants” for “Seeds”, “a height of 5-15 cm” for “the test plants”, “are” for “are sown in normal soil. After about 24 hours, the soil is”

[9] = test system: Alopecurus; assay: Post-emergence test; details: 250 g of ai/ha, after three weeks
Method: as §2, with “Test plants” for “Seeds”, “a height of 5-15 cm” for “the test plants”, “are” for “are sown in normal soil. After about 24 hours, the soil is”

[10] = test system: Sinapis; assay: Post-emergence test; details: 250 g of ai/ha, after three weeks
Method: as §2, with “Test plants” for “Seeds”, “a height of 5-15 cm” for “the test plants”, “are” for “are sown in normal soil. After about 24 hours, the soil is”

[11] = test system: Setaria; assay: Post-emergence test; details: 250 g of ai/ha, after three weeks
Method: as §2, with “Test plants” for “Seeds”, “a height of 5-15 cm” for “the test plants”, “are” for “are sown in normal soil. After about 24 hours, the soil is”

[12] = test system: Amaranthus; assay: Post-emergence test; details: 250 g of ai/ha, after three weeks
Method: as §2, with “Test plants” for “Seeds”, “a height of 5-15 cm” for “the test plants”, “are” for “are sown in normal soil. After about 24 hours, the soil is”

[13] = test system: Echinochloa; assay: Pre-emergence test; details: 2000 g of ai/ha, after three weeks
Method: as §2

[14] = test system: Sinapis; assay: Pre-emergence test; details: after three weeks
Method: as §2

[15] = test system: Meloidogyne incognita; assay: Meloidogyne test (gall formation on lettuce roots); details: 20 ppm; nematicidal action by gall formation, 100% = no galls
Method: To produce a suitable preparation of active compound, 1 part by weight of active compound is mixed with the stated amounts of solvent and emulsifier, and the concentrate is diluted with water to the desired concentration. Containers are filled with sand, solution of active compound, Meloidogyne incognita egg/larvae suspension and lettuce seeds. The lettuce seeds germinate and the plants develop. On the roots, galls are formed. After the desired period of time, the nematicidal action is determined in % by the gall formation. 100% means that no galls have been found; 0% means that the number of galls on the treated plants corresponds to that of the untreated control.

[16] = test system: Abutilon; assay: Post-emergence test; details: 250 g of ai/ha, after three weeks
Method: as §2, with “Test plants” for “Seeds”, “a height of 5-15 cm” for “the test plants”, “are” for “are sown in normal soil. After about 24 hours, the soil is”

[17] = test system: Avena fatua; assay: Post-emergence test; details: 250 g of ai/ha, after three weeks
Method: as §2, with “Test plants” for “Seeds”, “a height of 5-15 cm” for “the test plants”, “are” for “are sown in normal soil. After about 24 hours, the soil is”

[18] = test system: Maize; assay: Pre-emergence test; details: 125 g of ai/ha, after three weeks
Method: as §2

[19] = test system: Digitaria; assay: Pre-emergence test; details: 125 g of ai/ha, after three weeks
Method: as §2

[20] = test system: Lolium; assay: Pre-emergence test; details: 125 g of ai/ha, after three weeks
Method: as §2

[21] = test system: Eriochloa; assay: Pre-emergence test; details: 125 g of ai/ha, after three weeks
Method: as §2

[22] = test system: Ipomoea; assay: Pre-emergence test; details: 125 g of ai/ha, after three weeks
Method: as §2

[23] = test system: Botrytis cinerea; assay: Botrytis test (bean)/protective; details: 500 g/ha, protective, 2 days after inoculation
Method: To produce a suitable preparation of active compound, 1 part by weight of active compound is mixed with the stated amounts of solvent and emulsifier, and the concentrate is diluted with water to the desired concentration. To test for protective activity, young plants are sprayed with the preparation of active compound at the stated application rate. After the spray coating has dried on, 2 small pieces of agar colonized by Botrytis cinerea are placed onto each leaf. The inoculated plants are placed in a dark chamber at about 20° C. and 100% relative atmospheric humidity. 2 days after the inoculation, the size of the infested areas of the leaves is evaluated. 0% means an efficacy which corresponds to that of the control, whereas an efficacy of 100% means that no infection is observed.

[24] = test system: Avena fatua; assay: Pre-emergence test; details: 125 g of ai/ha, after three weeks
Method: as §2

[25] = test system: larva (L3) of the army worm (Spodoptera frugiperda); assay: Spodoptera frugiperda test/synthetic feed; details: 1000 ppm; synthetic feed
Method: To produce a suitable preparation of active compound, 1 part by weight of active compound is mixed with the stated amounts of solvent and emulsifier, and the concentrate is diluted with emulsifier-containing water to the desired concentration. A stated amount of the preparation of active compound of the desired concentration is pipetted onto a standardized amount of synthetic feed. In 6 replications, in each case one larva (L3) of the army worm (Spodoptera frugiperda) is placed onto the feed. After the desired period of time, the kill in % is determined. 100% means that all animals have been killed; 0% means that none of the animals have been killed.

Structure (SMILES): Cc1cc(C)c(C2=C(O)C3(CCC(OCCOC(C)C)CC3)NC2=O)c(C)c1C (single isomer, unassigned) [Ex. I-1-a-2]
- Kill rate in % after 7d [1]: 100%
- Kill rate in % after 7d [2]: 95%
- Kill rate in % after 6d ([3]; 1000 ppm): 100%

Structure (SMILES): COCCOC1CCC2(CC1)NC(=O)C(c1c(C)cc(C)c(C)c1C)=C2O (single isomer, unassigned) [Ex. I-1-a-3]
- Kill rate in % after 7d [1]: 100%
- Kill rate in % after 7d [2]: 98%

Structure (SMILES): COCCOC1CCC2(CC1)NC(=O)C(c1c(C)cc(C)cc1C)=C2O (single isomer, unassigned) [Ex. I-1-a-4]
- Kill rate in % after 7d ([4]; 1000 ppm): 100%
- Kill rate in % after 6d ([3]; 1000 ppm): 90%
- % damage ([5]; 250 g of ai/ha): 80%
- % damage ([6]; 250 g of ai/ha): 100%
- % damage ([7]; 250 g of ai/ha): 95%

Structure (SMILES): COCCOC1CCC2(CC1)NC(=O)C(c1cc(C)ccc1C)=C2O (single isomer, unassigned) [Ex. I-1-a-5]
- Kill rate in % after 7d ([4]; 1000 ppm): 100%
- Kill rate in % after 6d ([3]; 1000 ppm): 98%

Structure (SMILES): Cc1cc(C)c(C2=C(O)C3(CCC(OCC4CCCO4)CC3)NC2=O)c(C)c1C (single isomer, unassigned) [Ex. I-1-a-6]
- Kill rate in % after 7d [1]: 100%

Structure (SMILES): Cc1cc(C)c(C2=C(O)C3(CCC(OCC4CCCO4)CC3)NC2=O)cc1C (single isomer, unassigned) [Ex. I-1-a-8]
- Kill rate in % after 7d ([4]; 1000 ppm): 100%

Structure (SMILES): Cc1ccc(C)c(C2=C(O)C3(CCC(OCC4CCCO4)CC3)NC2=O)c1 (single isomer, unassigned) [Ex. I-1-a-9]
- Kill rate in % after 7d [1]: 100%

Structure (SMILES): Cc1cc(Cl)cc(C)c1C1=C(O)C2(CCC(OCC3CCCO3)CC2)NC1=O (single isomer, unassigned) [Ex. I-1-a-10]
- Kill rate in % after 7d [1]: 100%
- % damage [8]: 0%
- % damage [9]: 70%
- % damage [10]: 80%
- % damage [11]: 95%
- % damage [12]: 90%

Structure (SMILES): C=CCOC1CCC2(CC1)NC(=O)C(c1c(C)cc(Cl)cc1C)=C2O (single isomer, unassigned) [Ex. I-1-a-11]
- Kill rate in % after 7d ([4]; 500 ppm): 100%
- Kill rate in % after 7d [2]: 95%
- % damage [13]: 100%
- % damage ([14]; 2000 g of ai/ha): 90%

Structure (SMILES): C=CCOC1CCC2(CC1)NC(=O)C(c1c(C)cc(Cl)cc1Cl)=C2O (single isomer, unassigned) [Ex. I-1-a-12]
- Kill rate in % after 7d ([4]; 500 ppm): 100%
- % damage ([7]; 2000 g of ai/ha): 90%

Structure (SMILES): C=CCOC1CCC2(CC1)NC(=O)C(c1c(C)cc(Cl)cc1Cl)=C2O (single isomer, unassigned) [Ex. I-1-a-13]
- % damage ([5]; 2000 g of ai/ha): 95% and 90%

Structure (SMILES): Cc1cc(C)c(C2=C(O)C3(CCC(OCc4ccccc4Cl)CC3)NC2=O)cc1C (single isomer, unassigned) [Ex. I-1-a-20]
- Kill rate in % after 7d [1]: 100%

Structure (SMILES): Cc1ccc(C)c(C2=C(O)C3(CCC(OCc4ccccc4Cl)CC3)NC2=O)c1 (single isomer, unassigned) [Ex. I-1-a-21]
- Kill rate in % after 7d [1]: 100%

Structure (SMILES): Cc1cc(C)c(C2=C(O)C3(CCC(OCc4cccc(Cl)c4)CC3)NC2=O)c(C)c1C (single isomer, unassigned) [Ex. I-1-a-22]
- Effect in % after 14d [15]: 98%
- Kill rate in % after 7d [1]: 100%

Structure (SMILES): Cc1cc(C)c(C2=C(O)C3(CCC(OCc4cccc(Cl)c4)CC3)NC2=O)c(C)c1 (single isomer, unassigned) [Ex. I-1-a-23]
- % damage [8]: 0%
- % damage [16]: 80%
- % damage [10]: 90%
- % damage [11]: 95%
- % damage [12]: 90%
- % damage [17]: 80%
- % damage [18]: 0%
- % damage [19]: 100%
- % damage [20]: 80%
- % damage [21]: 99%
- % damage ([6]; 125 g of ai/ha): 95%
- % damage [22]: 80%

Structure (SMILES): Cc1ccc(C)c(C2=C(O)C3(CCC(OCc4cccc(Cl)c4)CC3)NC2=O)c1 (single isomer, unassigned) [Ex. I-1-a-25]
- Kill rate in % after 7d [1]: 100%

Structure (SMILES): Cc1cc(C)c(C2=C(O)C3(CCC(OCc4ccc(Cl)cc4)CC3)NC2=O)c(C)c1C (single isomer, unassigned) [Ex. I-1-a-26]
- Effect in % after 14d [15]: 100%
- Kill rate in % after 7d [1]: 100%

Structure (SMILES): Cc1ccc(-c2ccc(Cl)cc2)cc1C1=C(O)C2(CCC(OCc3ccc(Cl)cc3)CC2)NC1=O (single isomer, unassigned) [Ex. I-1-a-30]
- Kill rate in % after 7d [2]: 99%
- Kill rate in % after 6d ([3]; 500 ppm): 100%
- % efficacy [23]: 100%

Structure (SMILES): O=C1NC2(CCC(OCc3ccc(Cl)cc3)CC2)C(O)=C1c1cc(-c2ccc(Cl)cc2)ccc1Cl (single isomer, unassigned) [Ex. I-1-a-31]
- Effect in % after 14d [15]: 95%
- Kill rate in % after 7d ([4]; 500 ppm): 100%
- Kill rate in % after 7d [2]: 99%

Structure (SMILES): C=CCOC1CCC2(CC1)NC(=O)C(c1c(C)cc(Cl)cc1C)=C2OC(=O)OCC (single isomer, unassigned) [Ex. I-1-c-2]
- Effect in % after 14d [15]: 100%
- Kill rate in % after 6d ([3]; 500 ppm): 95%

Structure (SMILES): CCOC(=O)OC1=C(c2c(C)cc(C)cc2C)C(=O)NC12CCC(OCc1ccccc1)CC2 (single isomer, unassigned) [Ex. I-1-c-3]
- % damage ([5]; 125 g of ai/ha): 90%
- % damage ([14]; 125 g of ai/ha): 90%
- % damage ([6]; 125 g of ai/ha): 100%
- % damage [24]: 70%

Structure (SMILES): Cc1ccc(C)c(C2=C(OC(=O)C(C)C)C3(CCC(OCc4ccccc4)CC3)NC2=O)c1 (stereo not drawn) [Ex. I-1-b-1]
- Kill rate in % after 7d [25]: 100%
